Assay results as given in patent US7728146B2, “Enzyme inhibitors” (Probiodrug AG, priority 2006, dated 2010).
Read-outs that look alike come from different tables or passages of the source.

Key:
DPII = DPII (Homo sapiens, UniProt Q9UHL4); experiment: DPII assay; format: biochemical; settings: for Selectivity DPII(IC50)/DPIV(Ki): ratio IC50 DPII / Ki DP IV
Method: Determination of IC50 values for DPII and DP9 are done similarly as described for DP IV.
For DPII instead of the HEPES buffer a 0.2 M sodium acetate buffer pH 5.5 is used. As substrate Gly-Pro-AMC is used in a final concentration of 1 mM.

Caco-2 monolayer = experiment: Caco-2 transport assay; format: in vitro ADME, human; settings: assessment of permeability and transport type
Method: (§1) The concentration of compounds in the Caco experiments may be determined from their potency to inhibit recombinant human DP IV.
(§2) Reaction is started by addition of 20 μl rhDP IV and release of pNA was monitored at 405 nm. Samples are analyzed in several dilutions (undiluted, 1:10, 1:[…]). Dilutions are done in the Caco assay buffer. Activity measured with Caco-assay buffer alone is set to 100% and inhibitor concentration is calculated from the dilutions resulting in 20 to 80% inhibition according to the equation for competitive inhibition.
(§3) [formula] • I=inhibitor concentration • v0=velocity of the reaction without inhibitor (Caco assay buffer alone) • vi=velocity of the reaction with inhibitor sample • Ki=Ki-value of the compound • DF=dilution factor of the sample Transport Assay
(§4) The human colon adenocarcinome cell line Caco-2 are grown in 6- or 24-transwell microplates (Costar) for 21 days with MEM-alpha containing 10% FBS and 0.5% Gentamycin (Invitrogen). After 21 days of cultivation integrity of the cell layer are assessed by measurement of the transepitelial electrical resistance.
(§5) Transport measurements are carried out in triplicates at a pH of 7.5. For each compound and direction (apical to basal (a-b), basal to apical (b-a)) two separate experiments are done. Samples are collected from the donor and acceptor compartments at the beginning of the experiment and after 60 min (for 6-well plates, Donor at 0 and 120 min, Acceptor at 15, 30, 60 and 120 min).
(§6) Samples are analyzed in several dilutions for their ability to inhibit human recombinant DP IV and compound concentrations may be calculated using the prior determined Ki-value (see above).
(§7) The permeability coefficient Papp is calculated according to the following equation:
(§8) [formula] • VA=Volume of the acceptor compartment • A=Area of the transwell membrane • t=sampling time • cAt=concentration in the acceptor compartment at sampling time • CDO=concentration in the donor compartment at t=0
(§9) Papp-values>1e-5 cm/s are assessed as good permeable, value<1e-6 cm/s as not permeable. Papp-values in between as medium permeable. Compounds where no significant difference were found between a-b and b-a transport are assessed to be passive transported.

Caco-2 transport assay = format: in vitro ADME, human; settings: human, Caco-2, pH 7.5; for Papp A→B: apical to basal; for Papp B→A: basal to apical
Method: as §1, §2, §3, §4, §5, §6, §7, §8, §9

[1] = Bioavailability studies (pharmacokinetics after oral and intraarterial administration); format: in vivo, rat; settings: for AUC / AUC(0-inf) / AUC(0-t) / Cmax / Tmax / AUC/Dose / half-life: male Wistar rats; for AUC: cross-over design; for AUC(0-inf) / AUC(0-t) / Cmax / Tmax / AUC/Dose / half-life: hydrochloride salt, Mean ± SD; for bioavailability: calculated from Mean AUC p.o. / Mean AUC i.a., read-out: F (bioavailability)
Method: Male Wistar rats (N=25; Crl:WI) with a body weight ranging between 300 and 350 g were purchased from Harlan Winkelmann GmbH (Borchen, Germany).
All studycompounds were used in the form of the hydrochloride salt.
One week after adaptation to the housing conditions, catheters were implanted into the carotid artery of the rats under general anaesthesia (i.p. injection of 0.25 mL/kg b.w. Rompun® [2%], BayerVital, Germany and 0.5 mL/kg b.w. Ketamin 10, Atarost GmbH & Co., Twistringen, Germany). The animals were allowed to recover for one week. The catheters were flushed with heparin-saline (100 IU/mL) three times per week.
After overnight fast, the inhibitors were administered the oral route via a feeding tube (15 g, 75 mm; Fine Science Tools, Heidelberg, Germany) and the intraarterial route via the arterial catheter. In case of intraarterial administration, the catheter was immediately flushed with 30 μL saline.
The animals were treated by a single oral dose of 3 mg/kg (5 mL/kg b.w.; treatment A) followed by a wash-out period of at least 3 days before intraarterial administration of 3 mg/kg (2 mL/kg b.w.; treatment B). The compounds were dissolved in saline to a final concentration adequate for an application of 3 mg/kg b.w.
Heparinized blood samples of 170 μL were collected in ice cooled sample tubes at −5, 0 (before medication) and at 5, 15, 30, 45, 60, 120, 240, 360 and 480 min. Blood samples in sample tubes were put shortly on ice and centrifuged thereafter (12,000 rpm for 2 min).
Plasma levels of the DP IV inhibitors were determined by measurement of plasma DP IV activity under standardized conditions using Gly-Pro-pNA as substrate. Plasma levels were calculated from the degree of inhibition using the known inhibition constants and the equation for competitive inhibition.
For determination of plasma DP IV activity, 50 μL sample in an appropriate dilution were incubated with 100 μL Hepes buffer (0.102 M, pH 7.6, I=0.319 M by KCl) and 50 μL water in a 96 well plate. Reaction was started by addition of 50 μL of a 2 mM Gly-Pro-pNA solution. Release of pNA was monitored for 20 min at 30° C. and 405 nm using a GeniousPro plate reader (Tecan). DP IV activity (deltaAbsorbtion/min) was calculated by linear regression of the time response curve. From this activity the concentration of the inhibitor was calculated using the following equation derived from the inhibitor equation for competitive inhibition.
Pharmacokinetic analyses (parameters of the individual PK profiles) and descriptive statistics were carried out using WinNonlin (Version 4.0.1, Professional). Based on plasma concentration data of inhibitors, the following model-independent pharmacokinetic variables were determined:
AUC(0-inf), AUC(0-t), Cmax, tmax, terminal half-life (t1/2) and bioavailability (F).
F (in %) was calculated from the ratio of observed AUC upon oral route of administration to the AUC upon intraarterial administration.

[2] = Wistar (Crl:WI), rat, plasma, po, 3 mg/kg p.o., read-out: Mean AUC p.o.
[3] = Wistar (Crl:WI), rat, plasma, 3 mg/kg i.a., read-out: Mean AUC i.a.
[4] = Wistar (Crl:WI), rat, plasma, intraarterial 3 mg/kg, N = 4-6
[5] = Wistar (Crl:WI), rat, plasma, oral 3 mg/kg, N = 5
[6] = male, Wistar (Crl:WI), rat, plasma, 3 mg/kg, intraarterial 3 mg/kg, N = 4-6, read-out: Half-life (converted)
[7] = male, Wistar (Crl:WI), rat, plasma, po, 3 mg/kg, oral 3 mg/kg, N = 5, read-out: Half-life (converted)
[8] = male, Wistar (Crl:WI), rat, plasma, po, 3 mg/kg
[9] = sodium acetate buffer pH 5.5, Gly-Pro-AMC 1 mM

With NCc1c(-c2ccc(Cl)cc2Cl)ncn1Cc1cccnc1 [Example 121b, (4-(2,4-dichlorophenyl)-1-((pyridin-3-yl)methyl)-1H-imidazol-5-yl)methanamine] the “Selectivity DPII(IC50)/DPIV(Ki)” value (DPII) was 41,216, the IC50 (DPII; values >1e−4 are extrapolated values) was 122 µM and the Transport (Caco-2 monolayer) was “good, passive”. It also gave a Papp A→B (Caco-2 transport assay) of 36.4 ×10⁻⁶ cm/s, a Papp B→A (Caco-2 transport assay) of 40.4 ×10⁻⁶ cm/s and an AUC [1, 2] of 230 ng·h/mL. For the same compound, the AUC [1, 3] was 440 ng·h/mL, the AUC(0-inf) [1, 4] was 630 ± 350 ng·h/mL and the AUC(0-t) [1, 4] was 440 ± 215 ng·h/mL. It also gave a Cmax [1, 4] of 400 ± 120 ng/mL, an AUC(0-inf) [1, 5] of 350 ± 207 ng·h/mL and an AUC(0-t) [1, 5] of 230 ± 206 ng·h/mL. For the same compound, the Cmax [1, 5] was 110 ± 51 ng/mL, the Tmax [1, 5] was 0.45 ± 0.274 h and the AUC/Dose ([1]; intraarterial 3 mg/kg, N = 4-6) was 0.21 ± 0.115 kg·µg·h/mL/mg. The AUC/Dose ([1]; oral 3 mg/kg, N = 5) was 0.12 ± 0.069 kg·µg·h/mL/mg, the half-life [1, 6] was 1.98 ± 0.994 h and the half-life [1, 7] was 3.26 ± 3.87 h. The bioavailability [1, 8] was 53%.

For NCc1c(-c2ccc(Cl)cc2Cl)ncn1Cc1ccsc1 [Example 130b, (4-(2,4-dichlorophenyl)-1-((thiophen-3-yl)methyl)-1H-imidazol-5-yl)methanamine], the Ki (DPII) was 3.84 µM, the “Selectivity DPII(IC50)/DPIV(Ki)” value (DPII) was 186 and the IC50 (DPII; [9]) was 1.43 µM. For the same compound, the Transport (Caco-2 monolayer) was “good, passive”, the Papp A→B (Caco-2 transport assay) was 40 ×10⁻⁶ cm/s and the Papp B→A (Caco-2 transport assay) was 31.2 ×10⁻⁶ cm/s. The AUC [1, 2] was 1270 ng·h/mL, the AUC [1, 3] was 1680 ng·h/mL and the AUC(0-inf) [1, 4] was 2470 ± 1440 ng·h/mL. It also gave an AUC(0-t) [1, 4] of 1680 ± 516 ng·h/mL, a Cmax [1, 4] of 1160 ± 470 ng/mL and an AUC(0-inf) [1, 5] of 2330 ± 1180 ng·h/mL. For the same compound, the AUC(0-t) [1, 5] was 1270 ± 618 ng·h/mL, the Cmax [1, 5] was 300 ng/mL and the Tmax [1, 5] was 0.55 ± 0.326 h. The half-life ([1]; intraarterial 3 mg/kg, N = 4-6) was 4.00 ± 2.308 h, the AUC/Dose ([1]; oral 3 mg/kg, N = 5) was 0.78 ± 0.394 kg·µg·h/mL/mg and the half-life [1, 6] was 5.5 h. For the same compound, the half-life [1, 7] was 5.49 ± 1.52 h and the bioavailability [1, 8] was 76%.

With NCc1c(-c2ccc(Cl)cc2Cl)ncn1Cc1ccccc1 [Example 24b, (1-benzyl-4-(2,4-dichlorophenyl)-1H-imidazol-5-yl)methanamine] the “Selectivity DPII(IC50)/DPIV(Ki)” value (DPII) was 6,329, the IC50 (DPII; [9]) was 30 µM and the Transport (Caco-2 monolayer) was “good, passive”. It also gave a Papp A→B (Caco-2 transport assay) of 37.5 ×10⁻⁶ cm/s, a Papp B→A (Caco-2 transport assay) of 41.7 ×10⁻⁶ cm/s and an AUC [1, 2] of 390 ng·h/mL. For the same compound, the AUC [1, 3] was 510 ng·h/mL, the AUC(0-inf) [1, 4] was 640 ± 205 ng·h/mL and the AUC(0-t) [1, 4] was 510 ± 151 ng·h/mL. It also gave a Cmax [1, 4] of 440 ± 73 ng/mL, an AUC(0-inf) [1, 5] of 650 ± 314 ng·h/mL and an AUC(0-t) [1, 5] of 390 ± 149 ng·h/mL. It also gave a Cmax [1, 5] of 130 ± 36 ng/mL, a Tmax [1, 5] of 0.75 ± 0.177 h and an AUC/Dose ([1]; intraarterial 3 mg/kg, N = 4-6) of 0.18 ± 0.093 kg·µg·h/mL/mg. It also gave an AUC/Dose ([1]; oral 3 mg/kg, N = 5) of 0.22 ± 0.105 kg·µg·h/mL/mg, a half-life [1, 6] of 2.94 ± 1.39 h and a half-life [1, 7] of 4.83 ± 4.08 h. For the same compound, the bioavailability [1, 8] was 76%.

In the case of NCc1c(-c2ccc(Cl)cc2Cl)ncn1Cc1ccccn1 [Example 39b], the “Selectivity DPII(IC50)/DPIV(Ki)” value (DPII) is reported as >176,056, the IC50 (DPII; [9]) is reported as greater than 100 µM and the Transport (Caco-2 monolayer) is reported as “good, passive”. It also gave a Papp A→B (Caco-2 transport assay) of 40.6 ×10⁻⁶ cm/s, a Papp B→A (Caco-2 transport assay) of 42.5 ×10⁻⁶ cm/s and an AUC [1, 2] of 140 ng·h/mL. The AUC [1, 3] was 330 ng·h/mL, the AUC(0-inf) [1, 4] was 410 ± 191 ng·h/mL and the AUC(0-t) [1, 4] was 330 ± 148 ng·h/mL. It also gave a Cmax [1, 4] of 280 ± 51 ng/mL, an AUC(0-inf) [1, 5] of 290 ± 141 ng·h/mL and an AUC(0-t) [1, 5] of 140 ± 75 ng·h/mL. The Cmax [1, 5] was 80 ng/mL, the Tmax [1, 5] was 0.4 ± 0.224 h and the half-life ([1]; intraarterial 3 mg/kg, N = 4-6) was 1.57 ± 1.138 h. For the same compound, the AUC/Dose ([1]; oral 3 mg/kg, N = 5) was 0.10 ± 0.047 kg·µg·h/mL/mg, the half-life [1, 6] was 1.6 h and the half-life [1, 7] was 3.18 ± 2.13 h. For the same compound, the bioavailability [1, 8] was 43%.
